Among the data in patent US10029986B2, “Alkynyl pyridine-substituted amide compound and pesticide” (NISSAN CHEMICAL INDUSTRIES, LTD., priority 2014, dated 2018) are pest or weed control, inhibition of growth and melting point values, retold here.

Molecules are shown by their SMILES. Some results are limits rather than exact numbers.

Series [1] relates to Botrytis cinerea. Kind of series: Test on the preventive effect against cucumber gray mold (spore inoculation). The series is classed as in vivo. The settings on record: 72 h, test solution A 500 ppm, 5 ml per pot, cucumber cut leaves, conidium inoculation, 3 days at 20° C. The procedure: Compounds of the present invention were dissolved in a solvent for emulsion (a mixture of Sorpol (registered trademark) 3005XL (manufactured by Toho Chemical Industry Co., Ltd.): N-methylpyrrolidone: Solvesso (registered trademark) 200 (manufactured by ExxonMobil Chemical) in a ratio of 1:5:2) to prepare 20 wt % emulsifiable concentrates. Then, distilled water was added to dilute the emulsifiable concentrates to the prescribed concentration (500 ppm), and the obtained solutions were used in the following the Test Examples 1 to 8. Cucumber (varieties: Sagami Hanjiro) was seeded in 90 cm^3 plastic pot, and at the cotyledon stage, 5 ml per pot of test solution A of the compounds of the present invention was applied. After drying in air, the treated leaves were cut and transferred in plastic containers. 30 μl of a mixture of a suspension of conidium of Botrytis cinerea and a dissolved PDA medium in a ratio of 1:1 was dropped on each treated leaf and inoculated. After the inoculation, the plastic containers were placed in 20° C. with humid conditions for 3 days, and the proportion of the formed lesion in the inoculated leaves were counted to calculate the control value in accordance with the same formula as in the Test Example 1. The test was carried out in duplicate.

Series [2] relates to Botrytis cinerea. Kind of series: Test on the preventive effect against cucumber gray mold (mycelium inoculation). It counts as in vivo. The settings on record: 48 h, test solution A 500 ppm, 5 ml per pot, cucumber cotyledon, agar block inoculation, 2 days at 20° C. The procedure: Compounds of the present invention were dissolved in a solvent for emulsion (a mixture of Sorpol (registered trademark) 3005XL (manufactured by Toho Chemical Industry Co., Ltd.): N-methylpyrrolidone: Solvesso (registered trademark) 200 (manufactured by ExxonMobil Chemical) in a ratio of 1:5:2) to prepare 20 wt % emulsifiable concentrates. Then, distilled water was added to dilute the emulsifiable concentrates to the prescribed concentration (500 ppm), and the obtained solutions were used in the following the Test Examples 1 to 8. Cucumber (varieties: Sagami Hanjiro) was seeded in 90 cm^3 plastic pot, and at the cotyledon stage, 5 ml per pot of test solution A of the compounds of the present invention was applied. On the next day, the pot was transferred in a plastic container, and an agar blocks (diameter: 5 mm) containing Botrytis cinerea which was preliminarily cultivated in a PDA medium was inoculated on the cotyledon of the cucumber treated with the solution. After the inoculation, the plastic container was covered with a plastic sheet, then placed at 20° C. and humidified for 2 days. Thus the proportion of the formed lesion in the inoculated leaves were measured to calculate the control value in accordance with the same formula as in the Test Example 1. The test was carried out in duplicate.

A further series relates to Sclerotinia sclerotiorum. Kind of series: Test on the preventive effect against cucumber stem rot. The settings on record: 48 h, test solution A 500 ppm, 5 ml per pot, agar block inoculation, 2 days at 20° C. It counts as in vivo. As to the method:
Compounds of the present invention were dissolved in a solvent for emulsion (a mixture of Sorpol (registered trademark) 3005XL (manufactured by Toho Chemical Industry Co., Ltd.): N-methylpyrrolidone: Solvesso (registered trademark) 200 (manufactured by ExxonMobil Chemical) in a ratio of 1:5:2) to prepare 20 wt % emulsifiable concentrates. Then, distilled water was added to dilute the emulsifiable concentrates to the prescribed concentration (500 ppm), and the obtained solutions were used in the following the Test Examples 1 to 8. Cucumber (varieties: Sagami Hanjiro) was seeded in 90 cm^3 plastic pot, and at the cotyledon stage, 5 ml per pot of test solution A of the compounds of the present invention was applied. After drying in air, the pot was transferred in a plastic container, and an agar blocks (diameter: 5 mm) containing Sclerotinia sclerotiorum which was preliminarily cultivated in a PDA medium was inoculated to the seed leaves of the cucumber treated with the solution. After the inoculation, the plastic container was covered with a plastic sheet, and placed at 20° C. and humidified for 2 days, thus the proportion of the formed lesion in the inoculated leaves were measured to calculate the control value in accordance with the same formula as in the Test Example 1. The test was carried out in duplicate.

For the next series, the system named is Puccinia recondita. As to the kind of experiment: Test on the preventive effect against wheat leaf rust. The series is classed as in vivo. The settings on record: 216 h, test solution A 500 ppm, 5 ml per pot, wheat 1.3-leaf stage, 1 day inoculation chamber then 8 days at 20° C. The procedure:
(§1) Compounds of the present invention were dissolved in a solvent for emulsion (a mixture of Sorpol (registered trademark) 3005XL (manufactured by Toho Chemical Industry Co., Ltd.): N-methylpyrrolidone: Solvesso (registered trademark) 200 (manufactured by ExxonMobil Chemical) in a ratio of 1:5:2) to prepare 20 wt % emulsifiable concentrates. Then, distilled water was added to dilute the emulsifiable concentrates to the prescribed concentration (500 ppm), and the obtained solutions were used in the following the Test Examples 1 to 8. Wheat (varieties: Norin 61) was seeded in 90 cm^3 plastic pot, and at 1.3-leaf stage, 5 ml per pot of test solution A of the compounds of the present invention was applied. One day after treatment, a suspension of spores of Puccinia recondita was sprayed to the wheat, and the pot was left in the inoculation chamber at 20° C. under humidity of 100% RH for 1 day. Thereafter, the pot was placed in an air-conditioned greenhouse (20° C.) for 8 days. The proportion of the formed lesion in the inoculated leaves were counted to calculate the control value in accordance with the same formula as in the Test Example 1. The test was carried out in duplicate.

For another series, the system named is Asperaillus niger. Kind of series: Test on the antifungal activity against Asperaillus niger. To be noted: 48 h; test solution B 100 ppm, 10 μl per well, 96 well plate, 25° C. dark, 2 days after treatment; read-out: efficacy (flora area ratio relative to non-treated well). It counts as cell-based. As to the method: Compounds of the present invention were dissolved in dimethyl sulfoxide to prepare 1 wt % solutions. Then, distilled water was added to dilute the solutions to the prescribed concentration (100 ppm), and the obtained solutions were used in the following the Test Examples 9 to 12. 60 μl of a potato dextrose 1% agar medium was added to each well of a 96 well plate, and 30 μl of sterilized water containing spores of Asperaillus niger (10 spores/3 μl) was added to each well. Further, 10 μl per well of test solution B of the compounds of the present invention was added, and the plate was left at rest at 25° C. under dark conditions. 2 days after treatment, the flora area ratio (%) was determined to calculate the efficacy (%) relative to the non-treated well in accordance with the following formula. Efficacy (%)=[1−(flora area ratio in treated plot/flora area ratio in non-treated well)]×100

Series [3] relates to Erysiphe polygoni (synonym: Erysiphe betae). As to the kind of experiment: Test on the preventive effect against cucumber powdery mildew. The series is classed as in vivo. The settings on record: 216 h, test solution A 500 ppm, 5 ml per pot sprayed, cucumber cotyledon stage, 9 days after inoculation. The procedure: Compounds of the present invention were dissolved in a solvent for emulsion (a mixture of Sorpol (registered trademark) 3005XL (manufactured by Toho Chemical Industry Co., Ltd.): N-methylpyrrolidone: Solvesso (registered trademark) 200 (manufactured by ExxonMobil Chemical) in a ratio of 1:5:2) to prepare 20 wt % emulsifiable concentrates. Then, distilled water was added to dilute the emulsifiable concentrates to the prescribed concentration (500 ppm), and the obtained solutions were used in the following the Test Examples 1 to 8. Cucumber (varieties: Sagami Hanjiro) was seeded in 90 cm^3 plastic pot, and at the cotyledon stage, 5 ml per pot of test solution A of the compounds of the present invention was sprayed. After drying in air, the pot was placed in an air-conditioned greenhouse (20° C.), and a suspension of conidium of Erysiphe polygoni (synonym: Erysiphe betae) was sprayed. After the pot were replaced at the same temperature for 9 days, the proportion of the formed lesion in the inoculated leaves were counted to calculate the control value in accordance with the following formula. The test was carried out in duplicate. Control value=[1−(lesion area ratio in treated plot/lesion are a ratio in non-treated plot)]×100

The test system of series [4] is Blumeria graminis f. sp. tritici. As to the kind of experiment: Test on the preventive effect against wheat powdery mildew. The series is classed as in vivo. To be noted: 168 h, test solution A 500 ppm, 5 ml per pot, wheat 1.3-leaf stage, 7 days after inoculation. As to the method:
Compounds of the present invention were dissolved in a solvent for emulsion (a mixture of Sorpol (registered trademark) 3005XL (manufactured by Toho Chemical Industry Co., Ltd.): N-methylpyrrolidone: Solvesso (registered trademark) 200 (manufactured by ExxonMobil Chemical) in a ratio of 1:5:2) to prepare 20 wt % emulsifiable concentrates. Then, distilled water was added to dilute the emulsifiable concentrates to the prescribed concentration (500 ppm), and the obtained solutions were used in the following the Test Examples 1 to 8. Wheat (varieties: Norin 61) was seeded in 90 cm^3 plastic pot, and at the 1.3-leaf stage, 5 ml per pot of test solution A of the compounds of the present invention were applied. One day after treatment, the pot was placed in an air-conditioned greenhouse (20° C.), and conidium of Blumeria graminis f. sp. tritici was inoculated to the wheat. 7 days after, the proportion of the formed lesion in the inoculated leaves were measured to calculate the control value in accordance with the same formula as in the Test Example 1. The test was carried out in duplicate.

Series [5] deals with Phaeosphaeria nodorum (Synonym: Septoria nodorum). As to the kind of experiment: Test on the preventive effect against wheat glume blotch. It counts as in vivo. The settings on record: Parastagonospora nodorum, 144 h; test solution A 500 ppm, 5 ml per pot, wheat 1.3-leaf stage, 2 days inoculation chamber then 6 days at 20° C. The procedure:
as §1, with “(varieties: Haruyutaka)” for “(varieties: Norin 61)”, “of conidium” for “of spores”, “of Phaeosphaeria nodorum (Synonym: Septoria nodorum)” for “of Puccinia recondita”, “for 2 days. Then,” for “for 1 day. Thereafter,”, “for 6” for “for 8”, “were measured” for “were counted”

Broadly, the pest or weed control is the degree to which the test organism was suppressed or injured, in per cent. Lower therefore signals weak suppression. Broadly, the melting point is the temperature of the solid-liquid transition. `Cn1cc(C(=O)NC2CC2c2ncc(C#CC3CC3)cc2Cl)c(C(F)F)n1` (stereo not drawn) [8-033, N-[2-[3-chloro-5-(cyclopropylethynyl)pyridin-2-yl]cyclopropyl]-3-difluoromethyl-1-methyl-1H-pyrazole-4-carboxamide] registered a melting point of 176 to 178 °C. The molecule further yielded a pest or weed control at 500 µg/mL in the series on Botrytis cinerea [1] of no less than 70%. The same molecule returned a pest or weed control at 500 µg/mL in the series with Botrytis cinerea [2] of no less than 70%. In addition, the pest or weed control at 500 µg/mL in the series with Sclerotinia sclerotiorum was no less than 70%. Also, the pest or weed control at 500 µg/mL in the series on Puccinia recondita was no less than 70%. For the same molecule, the inhibition of growth at 100 µg/mL in the series with Asperaillus niger is no less than 50%.

On to `O=C(NCC(F)(F)c1ncc(C#CC2CC2)cc1Cl)c1ncccc1C(F)(F)F` [2-001], for which the melting point is 157 to 158 °C.

Turning to `CCOC(=O)C(CNC(=O)c1cn(C)nc1C(F)F)(C(=O)OCC)c1ncc(C#CC2CC2)cc1Cl` [8-023, 2-[3-chloro-5-(cyclopropylethynyl)pyridin-2-yl]-2-[(3-difluoromethyl-1-methyl-1H-pyrazole-4-carboxamide)methyl]malonic acid diethyl ester], the melting point fell in the range of 87 to 88 °C. The molecule also gave a pest or weed control at 500 µg/mL in series [3] of no less than 70%. Besides, the pest or weed control at 500 µg/mL in the series with Botrytis cinerea [1] is no less than 70%. Also, the pest or weed control at 500 µg/mL in series [4] was no less than 70%. In addition, the pest or weed control at 500 µg/mL in series [5] was no less than 70%.

`N#CC(C#N)(CNC(=O)c1ccccc1C(F)(F)F)c1ncc(C#CC2CC2)cc1Cl` [1-023, N-[2-[3-chloro-5-(cyclopropylethynyl)pyridin-2-yl]-2,2-dicyanoethyl]-2-(trifluoromethyl)benzamide] had a melting point of 42 to 44 °C. The molecule further yielded a pest or weed control at 500 µg/mL in [5] of no less than 70%.

As for `Cn1cc(C(=O)N(C(=O)OC(C)(C)C)C2CC2c2ncc(C#CC3CC3)cc2Cl)c(C(F)F)n1` (stereo not drawn) [12-002, tert-butyl N-[2-[3-chloro-5-(cyclopropylethynyl)pyridin-2-yl]cyclopropyl]-N-[3-difluoromethyl-1-methyl-1H-pyrazole-4-carbonyl]carbamate], the melting point lay in the range of 110 to 112 °C. This molecule also registered a pest or weed control at 500 µg/mL with Botrytis cinerea [1] of no less than 70%.

As for `COC(c1ncc(C#CC2CC2)cc1Cl)C(C)NC(=O)c1sc(C)nc1C(F)F` (stereo not drawn) [9-006b], the pest or weed control at 500 µg/mL in the series with Puccinia recondita was no less than 70%.

For `CC(F)(CNC(=O)c1cccnc1C(F)F)c1ncc(C#CC2CC2)cc1Cl` (stereo not drawn) [3-038, N-[2-[3-chloro-5-(cyclopropylethynyl)pyridin-2-yl]-2-fluoropropyl]-2-(difluoromethyl)nicotinamide], the melting point was in the range of 113 to 115 °C.
